Data from article PMC12690644 (RSC Advances, 2025).

Columns and labels:
[1] = target: acetylcholinesterase (AChE); assay: colorimetric kinetic kit assay, […] nm; format: biochemical; settings: room temperature, 10-15 min preincubation
[2] = target: β-secretase (BACE-1) (Homo sapiens, UniProt P56817); assay: fluorescence kit assay, slope based; format: biochemical
Chain of β-secretase (BACE-1) (P56817 46-501): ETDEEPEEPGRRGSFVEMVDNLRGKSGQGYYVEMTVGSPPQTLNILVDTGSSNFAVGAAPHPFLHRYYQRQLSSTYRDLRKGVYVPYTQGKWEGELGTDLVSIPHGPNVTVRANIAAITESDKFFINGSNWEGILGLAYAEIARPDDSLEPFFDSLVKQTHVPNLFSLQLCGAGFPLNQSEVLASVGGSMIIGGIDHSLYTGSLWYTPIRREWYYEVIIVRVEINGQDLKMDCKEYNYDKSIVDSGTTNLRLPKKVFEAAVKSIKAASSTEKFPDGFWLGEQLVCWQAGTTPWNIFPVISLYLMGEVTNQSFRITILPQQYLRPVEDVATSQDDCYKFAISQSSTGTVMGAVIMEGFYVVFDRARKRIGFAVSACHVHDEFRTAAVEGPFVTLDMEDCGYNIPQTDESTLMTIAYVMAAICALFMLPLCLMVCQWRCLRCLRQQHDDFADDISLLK

SMILES	AChE (μg mL^-1 ± SD) [1] [µg/mL]	IC50 [2] [µM]
O=C1C[C@@H](c2ccc(O)cc2)Oc2cc(O)cc(O)c21 [compound 1, naringenin]	0.212 ± 0.007	1.55
O=c1c(O)c(-c2ccc(O)cc2)oc2cc(O)cc(O)c12 [compound 2, 3,4′,5,7-tetrahydroxyflavone]	1.099 ± 0.03	25.1
COc1c(-c2ccc(O)cc2)oc2cc(O)cc(O)c2c1=O [compound 3, isokaempferide]	0.483 ± 0.015	0.446
CC1=CC(=O)CC(C)(C)[C@@]1(O)/C=C/[C@@H](C)O[C@@H]1O[C@H](CO)[C@@H](O)[C@H](O)[C@H]1O [compound 4, vomifoliol-9-O-β-D-glucopyranoside]	0.452 ± 0.014	0.171
C[N+](C)(CCl)CCc1ccc(O)cc1 [compound 5, N-chloromethyl hordenine]	0.076 ± 0.002	1.25
CC(=O)[N+](C)(C)CCc1ccc(O)cc1 [compound 6, N-acetyl hordenine]	2.255 ± 0.074	8.21
CC(=O)[N+](C)(CCl)CCc1ccc(O)cc1 (centres unmarked) [compound 7, N-acetyl-N-chloromethyl-N-methyl tyramine]	0.607 ± 0.02	0.494
